Experimental data published in PubChem BioAssay (NCI).
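Grown in 96-well plates, cells were treated for 48 hours with each compound at five concentrations. Insufficient inhibition: endpoint recorded as highest concentration tested. GI50 marks 50% less growth. TGI: concentration producing complete growth inhibition.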

Experiments:
Test in all cases: inhibition of tumour cell growth, NCI panel, 48 h
NCI-H522 lung = test system: NCI-H522 lung
SK-MEL-5 melanoma = test system: SK-MEL-5 melanoma
LOX IMVI melanoma = test system: LOX IMVI melanoma
NCI-H460 lung = test system: NCI-H460 lung
SNB-75 CNS = test system: SNB-75 CNS
HT29 colon = test system: HT29 colon
786-0 renal = test system: 786-0 renal
OVCAR-4 ovarian = test system: OVCAR-4 ovarian
UACC-62 melanoma = test system: UACC-62 melanoma
HOP-92 NSCLC = test system: HOP-92 NSCLC

| Compound | TGI (NCI-H522 lung) [µM] | TGI (SK-MEL-5 melanoma) [µM] | TGI (LOX IMVI melanoma) [µM] | TGI (NCI-H460 lung) [µM] | TGI (SNB-75 CNS) [µM] | TGI (HT29 colon) [µM] | TGI (786-0 renal) [µM] | TGI (OVCAR-4 ovarian) [µM] | TGI (UACC-62 melanoma) [µM] | GI50 (NCI-H522 lung) [µM] | GI50 (SK-MEL-5 melanoma) [µM] | GI50 (LOX IMVI melanoma) [µM] | GI50 (NCI-H460 lung) [µM] | GI50 (SNB-75 CNS) [µM] | GI50 (HT29 colon) [µM] | GI50 (786-0 renal) [µM] | GI50 (OVCAR-4 ovarian) [µM] | GI50 (UACC-62 melanoma) [µM] | TGI (HOP-92 NSCLC) [µM] | GI50 (HOP-92 NSCLC) [µM] |
| --- | --- | --- | --- | --- | --- | --- | --- | --- | --- | --- | --- | --- | --- | --- | --- | --- | --- | --- | --- | --- |
| CC(=O)OCCOCNC(=S)N/N=C/c1ccc2ccccc2n1 | 62.7 | 60.8 | > 100 | > 100 | > 100 | > 100 | > 100 | > 100 | 47.6 | – | – | – | – | – | – | – | – | – | – | – |
| [N-]=[N+]=Nc1ccc(CCN2CCN(c3cccc(C(F)(F)F)c3)CC2)cc1I | > 100 | > 100 | > 100 | > 100 | > 100 | > 100 | > 100 | > 100 | > 100 | – | – | – | – | – | – | – | – | – | – | – |
| COc1ccc(Cl)cc1Nc1nc(C(F)(F)F)ccc1C(=O)N/N=C/c1ccc([N+](=O)[O-])cc1 | 4.77 | 4.86 | 4.79 | 4.86 | 12.9 | 5.49 | 9.27 | 7.68 | 6.77 | 1.62 | 1.98 | 1.39 | 1.9 | 2.21 | 2.2 | 1.92 | 0.979 | 2.17 | – | – |
| C[C@@H](C1CCC2C3C(=CC(=O)[C@@]21C)[C@H](C)[C@]1(CCC(=O)O1)C1OC31)[C@H]1C[C@]2(C)O[C@@](C)(O1)OC2(C)C (stereo partly drawn) | > 100 | > 100 | > 100 | > 100 | – | > 100 | > 100 | – | > 100 | – | – | – | – | – | – | – | – | – | > 100 | – |
| CC1=CC[C@@H]2C(C)(C)C(=O)CC[C@@]2(C)[C@@H]1COc1ccc2ccc(=O)oc2c1 | 50.9 | 14.2 | 48.6 | 79.7 | – | > 100 | > 100 | 44.8 | 23.5 | 8.97 | 4 | 17.6 | 21.8 | – | 23.8 | 46.8 | 5.53 | 5.22 | > 100 | 27.4 |
| COc1cc(-c2nn(-c3ccc(NC(=O)Nc4ccc(Cl)c(Cl)c4)cc3)cc2-c2ccncc2)ccc1Cl | – | 8.29 | 4.75 | 5.64 | 9.75 | 17.1 | 5.43 | > 100 | 13.3 | – | 2.48 | 1.98 | 2.42 | 2.13 | 3.52 | 2.4 | 4.41 | 3.35 | 11.9 | 2.35 |
| CN(CCC#N)c1ccc(/C=C(\C#N)c2cccc(C(F)(F)F)c2)cc1 | – | 30.5 | > 100 | > 100 | > 100 | 11.3 | > 100 | > 100 | > 100 | – | 3.23 | 3.75 | 3.76 | 4.47 | 2.58 | 4.15 | 4.71 | 3.96 | 66.7 | 3.01 |
| Cc1nc2ccccc2c(=O)n1/N=C(\N=Nc1cc(Cl)ccc1Cl)c1cccc(-c2ccco2)c1 | – | > 100 | > 100 | > 100 | > 100 | > 100 | > 100 | > 100 | > 100 | – | – | – | – | – | – | – | – | – | 99.5 | – |
| O=S(=O)(Nc1cc(Br)c(O)c2ccccc12)c1ccc(F)cc1 | 83.4 | 3.35 | 4.88 | 38.7 | 17.1 | > 100 | 11.3 | – | 3.88 | 5.23 | 1.79 | 2.07 | 18.3 | 3.57 | 18.2 | 3.35 | – | 1.92 | 4.54 | 1.95 |
| CC1(C)C(c2ccccc2)=NN(O)c2ccccc21 | > 100 | > 100 | – | > 100 | > 100 | > 100 | > 100 | > 100 | > 100 | – | – | – | – | – | – | – | – | – | – | – |
| CC1=CCC2(C#N)CCC1C2O (stereo not drawn) | > 100 | > 100 | > 100 | > 100 | > 100 | > 100 | > 100 | > 100 | > 100 | – | – | – | – | – | – | – | – | – | – | – |
| Cc1cc(N2CCN(C)CC2)nc(NCc2cc(Nc3ccnc4cc(Cl)ccc34)ccc2F)n1 | 3.88 | 2.75 | 3.14 | – | 5.56 | 3.38 | 3.7 | 6.13 | – | 1.92 | 1.44 | 1.67 | – | 1.69 | 1.24 | 1.84 | 1.42 | – | – | – |
| N=CCCN(CCC=N)c1ccc(/C=C2\CN(NC(=O)c3ccc(Cl)cc3)C(c3ccccc3)=N2)cc1 | – | > 100 | > 100 | > 100 | > 100 | > 100 | > 100 | > 100 | > 100 | – | – | – | – | – | – | – | – | – | > 100 | – |
| O=C(O)c1c[nH]c2c(=O)[nH]cnc12 | > 100 | > 100 | > 100 | – | > 100 | > 100 | > 100 | – | > 100 | – | – | – | – | – | – | – | – | – | > 100 | – |
| CC1(C)C(c2ccccc2)C12CCC1(C2=O)C(c2ccccc2)C1(C)C (stereo not drawn) | 30.5 | 37.9 | 42.7 | – | 90.1 | 35 | 66.2 | > 100 | > 100 | – | – | – | – | – | – | – | – | – | 31.6 | – |
| C=CCC1C(=O)C(C(=O)OC)N2CCc3c([nH]c4ccccc34)C12 (stereo not drawn) | > 100 | > 100 | – | – | – | > 100 | > 100 | > 100 | > 100 | – | – | – | – | – | – | – | – | – | > 100 | – |
| COc1cc2c(c(OC)c1OC)C(=O)CC(c1cccc(NC(=O)c3ccc(Br)cc3)c1)O2 (stereo not drawn) | 6.43 | 3.32 | > 100 | > 100 | – | > 100 | > 100 | > 100 | 4.09 | 1.49 | 1.62 | 2.41 | 3.27 | – | 2.77 | 2.97 | 1.6 | 1.57 | – | – |
| O=C(C/C(=N\NC(=O)C[n+]1ccccc1)C(=O)Nc1nc2ccc([N+](=O)[O-])cc2s1)CC(c1ccccc1)c1c(O)c2ccccc2oc1=O (stereo not drawn) | > 100 | > 100 | – | > 100 | – | > 100 | > 100 | > 100 | > 100 | – | – | – | – | – | – | – | – | – | > 100 | – |
